Measurements: patent US20190127805A1, “GENE SIGNATURES FOR CANCER DETECTION AND TREATMENT” (ALMAC DIAGNOSTICS LIMITED, priority 2016, published 2019)

Assays:
OVCAR3-WT cells = assay: 10-day colony formation assay, OVCAR3-WT (cisplatin sensitive/naive); assay type: cell-based, human
Protocol: (§1) Cells were seeded at predetermined densities, 24 hours later treated with drug, which was replenished every 3-4 days. After 10 days, cells were washed with PBS, fixed in methanol, stained with crystal violet and colonies counted. The surviving fraction (SF) for a given dose was calculated and dose-response curves plotted and IC50 generated using Graph Pad Prism™ 5. Receiver operator curves (ROC) were plotted by dicotomising the IC50 values based on the median of the IC50 and defining the higher IC50 values as resistant and the lower IC50 values as sensitive. The gene signatures associated with the cell lines were plotted based on sensitive and resistant cells. Additionally ROCs were plotted by dicotomising the signature scores based on the median of the scores and defining the higher signature score as signature positive and the lower signature scores as signature negative. The IC50s associated with the cell lines were plotted based on signature positive and signature negative cells.

[1] = system: relapsed platinum sensitive epithelial ovarian cancer; conditions: cited from earlier work
OVCAR3-CP cells = assay: 10-day colony formation assay, OVCAR3-CP (cisplatin resistant); assay type: cell-based, human; conditions: for fold change: cisplatin-resistant OVCAR3 relative to OVCAR3 cisplatin-naïve, colony formation
Protocol: as §1, with “negative cells. OVCAR3 and OVCAR4 cells were trypsinised and relevant cell numbers were seeded into P90 plates. Cells were allowed to adhere overnight. The following day media was removed and replaced with media containing 25 nM cisplatin. The concentration of cisplatin was increased every 2 weeks, doubling the concentration at every increment. Batches of cells were frozen every two weeks upon increasing the concentration of cisplatin. Once cells were stably growing at 200 nM cisplatin, sensitivity to cisplatin was tested by clonogenic assay. Cells were continuously grown in 200 nM cisplatin.” for “negative cells.”

[2] = system: OVCAR3 and OVCAR4 cisplatin-resistant cells; assay: CellTiter Glo cell viability assay; assay type: cell-based; conditions: Homo sapiens; 48 hour time point; cell line not stated in legend (FIG. 43A)
Protocol: Cells were trysanised and counted using the Countess™ Automated Cell Counter. 5,000 cells were seeded into each well of a 96 well plate. Cells were allowed to adhere overnight and were then treated with titrated concentrations of cisplatin, cedirianib and nintedanib (10 μM to 0.005 μM concentration). […] The 96 well plate was allowed to stand at room temperature for 20-30 mins. In the meantime the CellTiter-Glo Luminescent was allowed to thaw from the −20 freezer. Following the 20-30 minute incubation, 75 μl of the CellTiter-Glo Luminescent was added per well, this was then shaken for 2 minutes and then allowed to stand for 10 minutes. The analysis was performed using the Bioscience BioTek plate reader.

[3] = system: OVCAR3 and OVCAR4 cisplatin-resistant cells; assay: Western blot of VEGFa protein expression; assay type: cell-based, human; conditions: IC50 concentration; western blot (FIG. 43B)
Kuramochi cells = assay: Western blot of EMT and MAPK pathway markers, Kuramochi cells; assay type: cell-based; conditions: western blot (FIG. 30a)
[4] = system: OVCAR3 platinum resistant cell line; assay: xCELLigence migration assay; assay type: cell-based, human; conditions: 0.1 nM, 1 nM and 10 nM (p=0.08544, p=0.015522, p=0.036739) (FIG. 30d)
Protocol: The migration assay was performed using the xCELLigence RTCA DP system and carried out with CIM-plate 16 (ACEA Bioscience). Endothelial progenitor cell conditioned media, fresh endothelial media with growth factors (VEGF, IGF-1, bFGF, EGF) with 10% foetal bovine serum (FBS) and endothelial media with 10% foetal bovine serum (FBS) only, were the three chemo-attractant conditions used in the bottom chamber. 160 μl of the chemo-attractant was added to each bottom chamber of a CIM-plate 16. The CIM-Plate 16 is assembled by placing the top chamber onto the bottom chamber and snapping the two together. 30 μl pf serum-free medium is placed in the top chamber to hydrate and pre-incubate the membrane for 2 hours in the CO2 incubator at 37° C. before obtaining a background measurement. The protocol is optimised for the two paired cancer cell lines: OVCAR3, OVCAR4 parental and OVCAR3, OVCAR4 platinum resistant cell lines. […] Once the CIM-Plate 16 has been equilibrated, it is placed in the RTCA DP station and the background cell-index values are measured. […] The CIM-Plate 16 is placed in the RTCA DP station and migration is monitored every 5 minutes for several hours. […] For quantification of the migration rate, the slope of the curve was used to determine the rate if change in cell index. The average and standard deviation slope values were then quantified relative to the controls.

[5] = system: OVCAR3 cisplatin resistant cell line; assay: Western blot of EMT and MAPK pathway markers, OVCAR3 cisplatin resistant cells; assay type: cell-based, human; conditions: 1 nM and 10 nM, 24 hour treatment; western blot (FIG. 30b)
[6] = system: OVCAR3-WT, OVCAR3-CP, OVCAR4-WT and OVCAR4-CP cells; assay: 10-day colony formation assay with ALM201 (FIG. 30c); assay type: cell-based, human; conditions: OVCAR3 and OVCAR4 cells (FIG. 30c)
Protocol: as §1
OVCAR3 and OVCAR4 cells were trypsinised and relevant cell numbers were seeded into P90 plates. Cells were allowed to adhere overnight. The following day media was removed and replaced with media containing 25 nM cisplatin. The concentration of cisplatin was increased every 2 weeks, doubling the concentration at every increment. […]

[7] = system: OVCAR3 platinum resistant cell line; assay: xCELLigence invasion assay; assay type: cell-based, human; conditions: 0.1 nM, 1 nM and 10 nM (p=0.0211, p=0.0026, p=0.3373) (FIG. 30d)
Protocol: The invasion assay was performed using the xCELLigence RTCA DP system and carried out with CIM-plate 16 (ACEA bioscience).
Normal cell media growth conditions (RPMI 1640, 1% L-Glut and 20% FCS) was the chemoattractant condition used in the bottom chamber. 160 μl of the chemoattractant was added to each bottom chamber of a CIM-plate 16. The CIM-Plate 16 is assembled by placing the top chamber onto the bottom chamber and snapping the two together. 20 μl Matrigel growth factor reduced (GFR) (phenol-red free) basement membrane matrix (Cornig, ref: 356231) was diluted in 400 μl optimem (serum free) giving a final working concentration of GFR Matrigel of 5%. […]
The protocol is optimized for the two paired cancer cell lines: OVCAR3, OVCAR4 parental and OVCAR3, OVCAR4 platinum resistant cell lines. […] Once the CIM-Plate 16 has been equilibrated, it is placed in the RTCA DP station and the background cell-index values are measured. […] The CIM-Plate 16 is placed in the RTCA DP station and migration is monitored every 5 minutes for several hours.
Each experimental condition was performed in triplicate. For quantification of the migration rate, the slope of the curve was used to determine the rate if change in cell index. The average and standard deviation slope values were then quantified relative to that at the control condition.

[8] = Homo sapiens, OVCAR-3, 240 h, OVCAR3 cisplatin-naïve, 10-day colony formation (FIG. 42)
[9] = Homo sapiens, OVCAR-3, 240 h, OVCAR3 cisplatin-resistant, 10-day colony formation (FIG. 42)

COc1cc2c(Oc3ccc4[nH]c(C)cc4c3F)ncnc2cc1OCCCN1CCCC1 [Cediranib]
IC50 (OVCAR3-WT cells; [8]): 4.99 µM | PFS ([1]; cediranib with platinum chemotherapy and maintenance (reference 9.4 months)): 11.4 months | overall survival ([1]; cediranib with platinum chemotherapy and maintenance (reference 17.6 months)): 20.3 months | HR for PFS ([1]; p-value=0.0022): 0.68 | HR for overall survival ([1]; p-value=0.0419): 0.70 | IC50 (OVCAR3-CP cells; [9]): 1.19 µM | fold change (OVCAR3-CP cells): 0.2391 | IC50 [2]: 5.57 µM | expression of the VEGFR ligand, VEGFa [3]: downregulated

COC(=O)c1ccc2c(c1)NC(=O)/C2=C(\Nc1ccc(N(C)C(=O)CN2CCN(C)CC2)cc1)c1ccccc1 [Nintedanib]
IC50 (OVCAR3-WT cells; [8]): > 10 µM | IC50 (OVCAR3-CP cells; [9]): 3.78 µM | fold change (OVCAR3-CP cells): 0.377 | IC50 [2]: 9.1 µM | expression of the VEGFR ligand, VEGFa [3]: downregulated

N.N.[Cl][Pt][Cl] [cisplatin]
IC50 (OVCAR3-WT cells; OVCAR3-WT, cisplatin alone): 0.066 µM | IC50 (OVCAR3-WT cells; OVCAR3-WT, cisplatin with addition of 0.5 uM Trametinib): 0.033 µM | fold decrease in the IC50 (OVCAR3-WT cells; OVCAR3-WT, following addition of Trametinib to cisplatin): 2 fold | IC50 (OVCAR3-WT cells; cisplatin sensitive OVCAR3 cells, colony formation (FIG. 2a)): 0.066 µM | IC50 (OVCAR3-CP cells; OVCAR3-CP, cisplatin with addition of Trametinib): 0.06 µM | fold decrease in the IC50 (OVCAR3-CP cells; OVCAR3-CP, following addition of Trametinib to cisplatin): 4.8 fold | IC50 (OVCAR3-CP cells; cisplatin resistant OVCAR3 cells, colony formation (FIG. 2a)): 0.29 µM | fold difference in IC50 doses (OVCAR3-CP cells; cisplatin resistant vs cisplatin sensitive OVCAR3 cells): 4.4 fold

IRQQPRDPPTETLELEVSPDPAS (listed as Homo sapiens) [ALM201]
EMT signalling (Kuramochi cells): reduced | MAPK signalling (Kuramochi cells): reduced | migration potential [4]: inhibited | EMT markers [5]: reversing EMT markers | MAPK pathway [5]: downregulation of the MAPK pathway | proliferation capacity [6]: inhibited the proliferation capacity | invasion potential [7]: inhibited
